Assay results as given in PubChem BioAssay AID1259408 (Genetic Toxicology Data Bank (GENE-TOX), 2018).
Active and inactive are the calls of the source. No rule for the calls is given here.

Tested on: GENE-TOX genotoxicity assays, various organisms and cells
Assay: GENE-TOX mutagenicity studies
Details: for call: Assay Type: In vivo carcinogenicity studies
From the text: GENE-TOX provides genetic toxicology (mutagenicity) test data from expert peer review of open scientific literature for more than 3,000 chemicals from the United States Environmental Protection Agency (EPA). GENE-TOX was established to select assay systems for evaluation, review data in the scientific literature, and recommend proper testing protocols and evaluation procedures for these systems.
GENE-TOX covers the years 1991 - 1998. It is no longer updated.
This is an archive assay for GENE-TOX mutagenicity studies.

[1] = Species/Cell Type: Allium cepa, Assay Type: Chromosome aberrations, Assay Code: ALC+D, Dose Response: With dose response, Evaluation Type: Evaluation A (Pre-1980)
[2] = Species/Cell Type: Drosophila melanogaster, Assay Type: Sex-linked recessive lethal gene mutation, Assay Code: SRLT, Evaluation Type: Evaluation A (Pre-1980)
[3] = Species/Cell Type: Human lymphocytes or leukocytes, Assay Type: Chromosome aberrations in vitro, Assay Code: CY7-, Evaluation Type: Evaluation A (Pre-1980)
[4] = Species/Cell Type: Nonhuman, Assay Code: CCGT, Evaluation Type: Evaluation A (Pre-1980)
[5] = Species/Cell Type: Nonhuman, Assay Type: Sister-chromatid exchange (SCE) in vitro, Assay Code: SC2+D, Dose Response: With dose response, Evaluation Type: Evaluation B (Post-1980)
[6] = Species/Cell Type: Salmonella typhimurium (one or more of the five standard strains: TA98, TA100, TA1535, TA1537, and TA1538), Assay Type: Histidine reverse gene mutation, Ames assay, Assay Code: SAL-, Evaluation Type: Evaluation A (Pre-1980)
[7] = Species/Cell Type: Nonhuman, Assay Code: CCG+, Evaluation Type: Evaluation A (Pre-1980)
[8] = Species/Cell Type: Salmonella typhimurium (one or more of the five standard strains: TA98, TA100, TA1535, TA1537, and TA1538), Assay Type: Histidine reverse gene mutation, Ames assay, Assay Code: SAL+, Evaluation Type: Evaluation A (Pre-1980)
[9] = Species/Cell Type: Escherichia coli polA (W3119 vs P3478), Assay Type: Rec-assay, DNA effects (bacterial DNA repair), Assay Code: RE1T, Evaluation Type: Evaluation A (Pre-1980)
[10] = Species/Cell Type: Saccharomyces cerevisiae, Assay Type: Mitotic recombination or gene conversion, Assay Code: YEH-, Evaluation Type: Evaluation A (Pre-1980)
[11] = Species/Cell Type: Salmonella typhimurium (one or more of the five standard strains: TA98, TA100, TA1535, TA1537, and TA1538), Assay Type: Histidine reverse gene mutation, Ames assay, Assay Code: SAL+*, Activation: With metabolic activation, Evaluation Type: Evaluation A (Pre-1980)
[12] = Species/Cell Type: Chinese hamster ovary (CHO) cells, Assay Type: Forward gene mutation at the HPRT locus, Assay Code: CHOT, Evaluation Type: Evaluation B (Post-1980)
[13] = Species/Cell Type: Salmonella typhimurium (one or more of the five standard strains: TA98, TA100, TA1535, TA1537, and TA1538), Assay Type: Histidine reverse gene mutation, Ames assay, Assay Code: SALT, Evaluation Type: Evaluation A (Pre-1980)
[14] = Species/Cell Type: Mammalian polychromatic erythrocytes, Assay Type: Micronucleus test, chromosome aberrations, Assay Code: MNTT, Evaluation Type: Evaluation B (Post-1980)

In the case of NO, the mutagenic call [1] was “active; positive”, the mutagenic call (Species/Cell Type: Arabidopsis species, Assay Type: Gene mutation, Assay Code: ARM-, Evaluation Type: Evaluation A (Pre-1980)) was “inactive; negative” and the mutagenic call (Species/Cell Type: Drosophila melanogaster, Assay Type: Aneuploidy, sex chromosome gain, chromosome aberrations, Assay Code: DAGT, Evaluation Type: Evaluation A (Pre-1980)) was “no conclusion”. The mutagenic call (Species/Cell Type: Drosophila melanogaster, Assay Type: Aneuploidy, whole sex chromosome loss, chromosome aberrations, Assay Code: DAC-M, Evaluation Type: Evaluation A (Pre-1980)) was “inactive; negative”, the mutagenic call [2] was “no conclusion” and the mutagenic call (Species/Cell Type: Escherichia coli polA (W3119 vs P3478), Assay Type: Rec-assay, DNA effects (bacterial DNA repair), Assay Code: RE1+, Evaluation Type: Evaluation A (Pre-1980)) was “active; positive”. For the same molecule, the mutagenic call (Species/Cell Type: Fischer rat embryo (RLV/1706) cells, Assay Type: Cell transformation, viral enhanced, Assay Code: CTR+, Evaluation Type: Evaluation A (Pre-1980)) was “active; positive”, the mutagenic call (Species/Cell Type: Glycine max (soybean), Assay Type: Gene mutation, Assay Code: GLM-, Evaluation Type: Evaluation A (Pre-1980)) was “inactive; negative” and the mutagenic call (Species/Cell Type: Human diploid fibroblasts, Assay Type: Unscheduled DNA synthesis (UDS) in vitro, DNA effects, Assay Code: UDH-, Evaluation Type: Evaluation A (Pre-1980)) was “inactive; negative”. For the same molecule, the mutagenic call [3] was “inactive; negative”, the mutagenic call (Species/Cell Type: Mouse (BALB/c-3T3) cells, Assay Type: Cell transformation, Assay Code: CTB-, Evaluation Type: Evaluation A (Pre-1980)) was “inactive; negative” and the mutagenic call (Species/Cell Type: Neurospora crassa, Assay Type: Forward gene mutation, Assay Code: NEF+, Evaluation Type: Evaluation A (Pre-1980)) was “active; positive”. The call [4] was “no conclusion”, the mutagenic call [5] was “active; positive” and the mutagenic call (Species/Cell Type: Saccharomyces cerevisiae, Assay Type: Forward gene mutation, Assay Code: YEF+, Evaluation Type: Evaluation A (Pre-1980)) was “active; positive”. The mutagenic call (Species/Cell Type: Saccharomyces cerevisiae, Assay Type: Mitotic recombination or gene conversion, Assay Code: YEH+, Evaluation Type: Evaluation A (Pre-1980)) was “active; positive”, the mutagenic call [6] was “inactive; negative” and the mutagenic call (Species/Cell Type: Schizosaccharomyces pombe, Assay Type: Forward gene mutation, Assay Code: YEY+, Evaluation Type: Evaluation A (Pre-1980)) was “active; positive”. The mutagenic call (Species/Cell Type: Syrian hamster embryo (SHE) cells, Assay Type: Cell transformation, clonal assay, Assay Code: CTC-, Evaluation Type: Evaluation A (Pre-1980)) was “inactive; negative” and the mutagenic call (Species/Cell Type: Vicia faba, Assay Type: Chromosome aberrations, Assay Code: VIC+, Evaluation Type: Evaluation A (Pre-1980)) was “active; positive”.

With CC(C(=O)O)c1ccc(-c2ccccc2)c(F)c1 (configuration not stated) the mutagenic call (Species/Cell Type: Human lymphocytes, Assay Type: Sister-chromatid exchange (SCE) in vivo, Assay Code: SCY+, Evaluation Type: Evaluation B (Post-1980)) was “active; positive”.

In the case of O=P([O-])([O-])[O-].O=P([O-])([O-])[O-].[Pb+2].[Pb+2].[Pb+2], the call [7] was “active; positive”.

With CCOCc1c(O)cc2c(c1O)C(=O)c1ccccc1C2=O the mutagenic call [8] was “active; positive”.

In the case of Cc1c2ccccc2c(CO)c2ccc3ccccc3c12, the mutagenic call (Species/Cell Type: Chinese hamster lung (V79) cells, Assay Type: Forward gene mutation at the HPRT or ouabain locus, Assay Code: V79+, Evaluation Type: Evaluation A (Pre-1980)) was “active; positive”, the mutagenic call (Species/Cell Type: Escherichia coli polA (W3110 vs P3478), Assay Type: Rec-assay, DNA effects (bacterial DNA repair), Assay Code: RE2+, Evaluation Type: Evaluation A (Pre-1980)) was “active; positive” and the mutagenic call [9] was “no conclusion”. For the same molecule, the call [7] was “active; positive”, the mutagenic call [10] was “inactive; negative” and the mutagenic call [11] was “active; positive”. For the same molecule, the mutagenic call (Species/Cell Type: Salmonella typhimurium, Assay Type: Forward and reverse gene mutation, host-mediated assay, Assay Code: HMA-, Evaluation Type: Evaluation A (Pre-1980)) was “inactive; negative”.

For COc1ccc2nc3cc(Cl)ccc3c(NCCCNCCO)c2c1, the mutagenic call (Species/Cell Type: Chinese hamster ovary (CHO) cells, Assay Type: Forward gene mutation at the HPRT locus, Assay Code: CHO-, Evaluation Type: Evaluation A (Pre-1980)) was “inactive; negative”, the mutagenic call [12] was “no conclusion” and the mutagenic call [13] was “no conclusion”.

With CCCN(CCC)C(=O)SCC (tested in a mixture with another compound) the mutagenic call (Species/Cell Type: Zea mays (corn), Assay Type: Gene mutation, Assay Code: ZEM-, Evaluation Type: Evaluation A (Pre-1980)) was “inactive; negative”.

In the case of O=S(=O)(O)c1cc(S(=O)(=O)O)c2c(N=Nc3ccccc3)c(O)ccc2c1, the mutagenic call (Species/Cell Type: Bacillus subtilis (H17 vs M45), Assay Type: Rec-assay, spot test, DNA effects (bacterial DNA repair), Assay Code: REWT, Evaluation Type: Evaluation A (Pre-1980)) was “no conclusion”.

With ClCc1ccc(-c2ccccc2)cc1 the mutagenic call [12] was “no conclusion”, the mutagenic call (Species/Cell Type: Human lymphocytes, Assay Type: Sister-chromatid exchange (SCE) in vitro, Assay Code: SCL+D, Dose Response: With dose response, Evaluation Type: Evaluation B (Post-1980)) was “active; positive” and the mutagenic call (Species/Cell Type: Human, Assay Type: Sister-chromatid exchange (SCE) in vitro, Assay Code: SC1+D, Dose Response: With dose response, Evaluation Type: Evaluation B (Post-1980)) was “active; positive”. The mutagenic call (Species/Cell Type: Mammalian polychromatic erythrocytes, Assay Type: Micronucleus test, chromosome aberrations, Assay Code: MNT-, Evaluation Type: Evaluation B (Post-1980)) was “inactive; negative”.

For O=[N+]([O-])c1cccc([N+](=O)[O-])c1Cl, the mutagenic call [9] was “no conclusion”.

CCCCNCCCCO was tested, and the mutagenic call (Species/Cell Type: Nonhuman, Assay Type: Chromosome aberrations in vitro, Assay Code: CY&-, Evaluation Type: Evaluation A (Pre-1980)) was “inactive; negative” and the mutagenic call (Species/Cell Type: Nonhuman, Assay Type: Sister-chromatid exchange (SCE) in vitro, Assay Code: SC2T, Evaluation Type: Evaluation A (Pre-1980)) was “no conclusion”.

With Nc1ccc(-c2nc(NCCO)c3ccccc3n2)s1 the mutagenic call [13] was “no conclusion”.

In the case of CNC(=O)C[C@@H](N)C(=O)N[C@@H](C(=O)N[C@@H]1C(=O)N2[C@@H]1SC(C)(C)[C@@H]2C(=O)O)c1ccc(O)cc1, the mutagenic call [14] was “no conclusion”.

In the case of ClC1=C(Cl)[C@]2(Cl)[C@H]3[C@H]([C@@H]4C=C[C@H]3C4)[C@@]1(Cl)C2(Cl)Cl, the mutagenic call [2] was “no conclusion”, the mutagenic call [14] was “no conclusion” and the call (Species/Cell Type: Nonhuman, Assay Code: CCG+L, Evaluation Type: Evaluation A (Pre-1980)) was “active; positive”. The mutagenic call [10] was “inactive; negative” and the mutagenic call [6] was “inactive; negative”.

For Cc1ccc2cc3c(c4c2c1CC4)[C@H](O)[C@@H](O)c1ccccc1-3, the mutagenic call (Species/Cell Type: Chinese hamster lung (V79) cells, Assay Type: Forward gene mutation at the HPRT or ouabain locus, Assay Code: V79-, Evaluation Type: Evaluation A (Pre-1980)) was “inactive; negative”, the mutagenic call (Species/Cell Type: Mouse prostate cells, Assay Type: Cell transformation, Assay Code: CTM-, Evaluation Type: Evaluation A (Pre-1980)) was “inactive; negative” and the call [4] was “no conclusion”. For the same molecule, the mutagenic call [11] was “active; positive”.

ONC1CCCCC1 was tested, and the mutagenic call [2] was “no conclusion”, the mutagenic call (Species/Cell Type: Drosophila melanogaster, Sex: Male, Assay Type: Heritable translocation test, chromosome aberrations, Assay Code: DHTT, Evaluation Type: Evaluation A (Pre-1980)) was “no conclusion” and the mutagenic call [3] was “inactive; negative”.

Nc1cccc(N)c1 was tested, and the mutagenic call (Species/Cell Type: Allium cepa, Assay Type: Chromosome aberrations, Assay Code: ALC+, Evaluation Type: Evaluation A (Pre-1980)) was “active; positive”, the mutagenic call (Species/Cell Type: Rodents, Sex: Male, Assay Type: Dominant lethal test, Assay Code: DLTT, Evaluation Type: Evaluation A (Pre-1980)) was “no conclusion” and the mutagenic call [11] was “active; positive”. For the same molecule, the mutagenic call (Species/Cell Type: Syrian hamster embryo (SHE) cells, Assay Type: Cell transformation, clonal assay, Assay Code: CTC+, Evaluation Type: Evaluation A (Pre-1980)) was “active; positive”.

In the case of NNCCO, the mutagenic call (Species/Cell Type: Bacillus subtilis (H17 vs M45), Assay Type: Rec-assay, spot test, DNA effects (bacterial DNA repair), Assay Code: REW+, Evaluation Type: Evaluation A (Pre-1980)) was “active; positive”, the mutagenic call (Species/Cell Type: Escherichia coli WP2, Assay Type: Tryptophan reverse gene mutation, Assay Code: WP2+, Evaluation Type: Evaluation A (Pre-1980)) was “active; positive” and the mutagenic call (Species/Cell Type: Escherichia coli WP2 UVRA, Assay Type: Tryptophan reverse gene mutation, Assay Code: WPU+, Evaluation Type: Evaluation A (Pre-1980)) was “active; positive”. For the same molecule, the mutagenic call [5] was “active; positive” and the mutagenic call [8] was “active; positive”.

With Cc1ccc2oc(=O)ccc2c1 the mutagenic call [1] was “active; positive” and the mutagenic call (Species/Cell Type: Nonhuman, Assay Type: Chromosome aberrations in vitro, Assay Code: CY&+, Evaluation Type: Evaluation A (Pre-1980)) was “active; positive”.
